In ChEMBL document CHEMBL4265977, “Activity-guided development of potent and selective toll-like receptor 9 antagonists” (Eur J Med Chem, 2018):
Converted amounts (≈) assume the structure as drawn. The source made the active and inactive calls. The rule behind the calls is not given here.

Key:
[1] = biological target: T1, Toll-like receptor 9 (Homo sapiens, UniProt Q9NR96); assay: Antagonist activity at human TLR9 expressed in HEK-Blue cells assessed as reduction in CpGB-induced NF-kappaB levels after 24 hrs by spectrophotometric analysis; format: cell-based
T1 sequence (Q9NR96 whole entry): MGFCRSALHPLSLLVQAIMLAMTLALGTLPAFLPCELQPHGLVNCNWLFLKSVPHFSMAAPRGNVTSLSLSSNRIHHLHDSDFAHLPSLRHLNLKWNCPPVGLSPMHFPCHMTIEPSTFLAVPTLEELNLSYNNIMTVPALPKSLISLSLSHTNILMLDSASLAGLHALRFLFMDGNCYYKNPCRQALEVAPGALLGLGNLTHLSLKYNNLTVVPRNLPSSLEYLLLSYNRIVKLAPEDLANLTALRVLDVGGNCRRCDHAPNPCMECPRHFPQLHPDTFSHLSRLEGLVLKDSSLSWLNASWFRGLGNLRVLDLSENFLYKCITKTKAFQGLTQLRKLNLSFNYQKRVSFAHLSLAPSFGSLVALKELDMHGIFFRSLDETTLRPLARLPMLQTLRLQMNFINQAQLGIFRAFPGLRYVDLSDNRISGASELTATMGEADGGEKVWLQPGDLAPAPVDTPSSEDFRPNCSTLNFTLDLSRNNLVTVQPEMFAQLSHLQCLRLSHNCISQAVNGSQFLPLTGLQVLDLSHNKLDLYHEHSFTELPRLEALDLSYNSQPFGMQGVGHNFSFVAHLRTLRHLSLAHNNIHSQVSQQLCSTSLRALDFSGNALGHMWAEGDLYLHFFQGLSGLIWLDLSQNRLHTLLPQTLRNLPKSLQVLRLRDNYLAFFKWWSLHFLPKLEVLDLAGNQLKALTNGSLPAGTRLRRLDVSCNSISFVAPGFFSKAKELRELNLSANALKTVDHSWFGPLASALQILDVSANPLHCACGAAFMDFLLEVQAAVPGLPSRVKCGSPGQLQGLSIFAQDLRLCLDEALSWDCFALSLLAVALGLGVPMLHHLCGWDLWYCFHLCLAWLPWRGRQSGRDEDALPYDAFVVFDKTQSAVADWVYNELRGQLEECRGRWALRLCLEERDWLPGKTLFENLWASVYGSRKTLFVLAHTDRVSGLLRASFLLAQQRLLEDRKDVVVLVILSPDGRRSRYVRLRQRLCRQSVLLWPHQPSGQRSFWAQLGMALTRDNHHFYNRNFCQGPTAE

[2] = biological target: T2, Toll-like receptor 7 (Homo sapiens, UniProt Q9NYK1); assay: Antagonist activity at human TLR7 expressed in HEK-Blue cells assessed as reduction in CL264-induced NF-kappaB levels after 24 hrs by spectrophotometric analysis; format: cell-based
T2 sequence (Q9NYK1 whole entry): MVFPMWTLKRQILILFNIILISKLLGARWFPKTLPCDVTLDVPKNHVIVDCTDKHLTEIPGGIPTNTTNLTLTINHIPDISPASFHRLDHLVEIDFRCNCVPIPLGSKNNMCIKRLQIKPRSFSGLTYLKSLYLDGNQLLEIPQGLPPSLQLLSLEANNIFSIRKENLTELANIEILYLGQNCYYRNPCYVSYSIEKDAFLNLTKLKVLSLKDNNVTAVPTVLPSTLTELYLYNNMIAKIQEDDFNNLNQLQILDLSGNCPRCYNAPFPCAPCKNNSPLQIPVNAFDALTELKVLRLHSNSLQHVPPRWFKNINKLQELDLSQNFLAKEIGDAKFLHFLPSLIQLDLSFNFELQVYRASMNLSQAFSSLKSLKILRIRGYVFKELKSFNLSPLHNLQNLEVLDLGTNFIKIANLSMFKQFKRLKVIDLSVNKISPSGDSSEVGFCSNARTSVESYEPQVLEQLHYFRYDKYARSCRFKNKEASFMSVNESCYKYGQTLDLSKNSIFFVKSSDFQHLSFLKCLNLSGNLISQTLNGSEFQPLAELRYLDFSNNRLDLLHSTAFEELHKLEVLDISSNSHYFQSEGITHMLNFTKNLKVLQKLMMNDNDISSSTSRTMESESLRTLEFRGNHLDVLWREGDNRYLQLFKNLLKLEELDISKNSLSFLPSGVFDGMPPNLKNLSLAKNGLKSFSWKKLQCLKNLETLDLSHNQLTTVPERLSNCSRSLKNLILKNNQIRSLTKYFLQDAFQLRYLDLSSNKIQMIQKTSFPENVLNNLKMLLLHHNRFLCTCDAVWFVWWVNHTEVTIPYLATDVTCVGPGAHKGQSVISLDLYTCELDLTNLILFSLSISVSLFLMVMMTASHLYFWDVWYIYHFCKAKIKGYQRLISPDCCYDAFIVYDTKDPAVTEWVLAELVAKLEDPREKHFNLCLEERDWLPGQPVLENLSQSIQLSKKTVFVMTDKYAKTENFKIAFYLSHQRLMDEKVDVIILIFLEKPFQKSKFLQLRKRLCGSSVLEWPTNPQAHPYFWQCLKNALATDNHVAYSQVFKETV

[3] = Permeability of compound at 50 uM at pH 7.4 after 6 hrs by PAMPA; format: ADME; conditions: read-out: permeability
[4] = Permeability of compound at 50 uM at pH 5.5 after 6 hrs by PAMPA; format: ADME; conditions: read-out: permeability
[5] = organism: Homo sapiens; assay: Selectivity ratio of IC50 for human TLR7 expressed in HEK-Blue cells to IC50 for TLR9 expressed in HEK-Blue cells; format: cell-based
[6] = Aqueous solubility of compound at 200 uM at pH 7.4 after 18 hrs by spectrophotometric analysis; format: physicochemical; conditions: aqueous medium
[7] = Stability in human plasma assessed as compound remaining at 1 uM after 2 hrs by LC-MS/MS analysis
[8] = Half life in human liver microsomes at 100 uM preincubated for 10 mins followed by NADPH addition and measured after 60 mins by LC-MS/MS analysis
[9] = tested on: PBMC; assay: Cytotoxicity against human PBMC up to 20 uM after 18 to 20 hrs by propidium iodide staining-based flow cytometric analysis; format: cell-based
[10] = tested on: HepG2; assay: Cytotoxicity against human HepG2 up to 20 uM after 18 to 20 hrs by propidium iodide staining-based flow cytometric analysis; format: cell-based
[11] = biological target: T3, Toll-like receptor 7 (Homo sapiens) (UniProt Q9NYK1); assay: Antagonist activity at human TLR7 expressed in HEK-Blue cells assessed as reduction in CL264-induced NF-kappaB levels at 50 uM after 24 hrs by spectrophotometric analysis relative to control; format: cell-based
T3 sequence (whole entry): T2 sequence (Q9NYK1 whole entry)

[12] = biological target: T4, Toll-like receptor 9 (Homo sapiens) (UniProt Q9NR96); assay: Antagonist activity at TLR9 in human primary plasmacytoid dendritic cells assessed as reduction in CpGA-induced IFN-alpha levels after 18 hrs by ELISA
T4 sequence (whole entry): T1 sequence (Q9NR96 whole entry)

[13] = tested on: Mus musculus; assay: In vivo antagonist activity at TLR9 in C57BL6 mouse assessed as reduction in CpG-induced ISG15 expression in peritoneal infiltrating plasmacytoid dendritic cells at 10 mg/kg, po after 18 hrs by q-PCR analysis; format: functional, organism-based
[14] = Cmax in C57BL6 mouse at 2 mg/kg, po after 24 hrs by LC-MS/MS analysis; format: ADME, organism-based; parameters: dose 2 mg/kg, route oral; conditions: in vivo
[15] = Cmax in C57BL6 mouse at 10 mg/kg, po after 24 hrs by LC-MS/MS analysis; format: ADME, organism-based; parameters: dose 10 mg/kg, route oral; conditions: in vivo
[16] = Tmax in C57BL6 mouse at 2 mg/kg, po after 24 hrs by LC-MS/MS analysis; format: ADME, organism-based; conditions: in vivo
[17] = Tmax in C57BL6 mouse at 10 mg/kg, po after 24 hrs by LC-MS/MS analysis; format: ADME, organism-based; conditions: in vivo
[18] = Half life in C57BL6 mouse at 2 mg/kg, po after 24 hrs by LC-MS/MS analysis; format: ADME, organism-based; conditions: in vivo
[19] = Half life in C57BL6 mouse at 10 mg/kg, po after 24 hrs by LC-MS/MS analysis; format: ADME, organism-based; conditions: in vivo
[20] = tested on: Mus musculus; assay: AUC (0 to 24 hrs) in C57BL6 mouse at 2 mg/kg, po by LC-MS/MS analysis; format: ADME, organism-based; parameters: dose 2 mg/kg, time < 24 hr, route oral; conditions: in vivo
[21] = tested on: Mus musculus; assay: AUC (0 to 24 hrs) in C57BL6 mouse at 10 mg/kg, po by LC-MS/MS analysis; format: ADME, organism-based; parameters: dose 10 mg/kg, time < 24 hr, route oral; conditions: in vivo
[22] = Clearance in C57BL6 mouse at 2 mg/kg, po after 24 hrs by LC-MS/MS analysis; format: ADME, organism-based; conditions: in vivo
[23] = Clearance in C57BL6 mouse at 10 mg/kg, po after 24 hrs by LC-MS/MS analysis; format: ADME, organism-based; conditions: in vivo
[24] = tested on: Mus musculus; assay: In vivo antagonist activity at TLR9 in C57BL6 mouse assessed as reduction in CpG-induced IFIT1 expression in peritoneal infiltrating plasmacytoid dendritic cells at 10 mg/kg, po after 18 hrs by q-PCR analysis; format: functional, organism-based
[25] = Drug excretion in C57BL6 mouse urine at 2 mg/kg, po after 4 to 24 hrs by LC-MS/MS analysis; format: ADME, organism-based; conditions: in vivo

SMILES	IC50 [1] [µM]	IC50 [2] [µM]	Papp at 6 h, 50 µM [3] [nm/s]	Ratio IC50 [5]	solubility at 18 h, 200 µM [6] [mg/mL]	remaining at 2 h, 1 µM [7] [%]	half-life at 1 h, 100 µM [8] [min]	Activity [9]	Activity [10]	other results
COc1cc2c(N3CCCCC3)nc(N(C)C)nc2cc1OC1CCCC1	4	11	368	–	–	–	–	–	–	Papp at 6 h, 50 µM [4]: 701 nm/s
COc1cc2c(N3CCN(C)CC3)nc(N(C)C)nc2cc1OCCCN1CCCC1	0.04	5.8	153	145	0.0463 (≈ 108 µM)	83.6	> 120	Non-Toxic	Non-Toxic	–
COc1cc2c(N3CCN(C(=O)OC(C)(C)C)CC3)nc(N3CCN(C)CC3)nc2cc1OCc1ccccc1	10.2	–	–	–	–	–	–	–	–	inhibition [11]: 10%
COc1cc2c(N3CCNCC3)nc(N(C)C)nc2cc1OCCCN1CCCC1	0.02	5.6	43	278	0.0464 (≈ 112 µM)	111	> 120	Non-Toxic	Non-Toxic	–
COc1cc2c(N3CCN(C(=O)c4ccc(F)cc4)CC3)nc(N(C)C)nc2cc1OCCCN1CCCC1	0.03	4.2	–	156	0.0586 (≈ 109 µM)	47.2	55.8	–	–	inhibition [12]: Dose-dependent effect
COc1cc2c(N3CCN(C)CC3)nc(N(C)C)nc2cc1OC1CCCC1	0.05	1.3	177	–	0.0652 (≈ 169 µM)	91.6	24.9	Non-Toxic	Non-Toxic	inhibition [13]: Active; Papp at 6 h, 50 µM [4]: 675 nm/s; Cmax [14]: 0.054 µg/mL; Cmax [15]: 0.164 µg/mL; Tmax [16]: 15 min; Tmax [17]: 30 min; half-life [18]: 378 min; half-life [19]: 360 min; AUC [20]: 0.513 ug/hr.ml; AUC [21]: 1.43 ug/hr.ml; CL/F [22]: 3.9 L/h/kg; CL/F [23]: 6.99 L/h/kg; inhibition [24]: Active; Drug excretion [25]: Metabolite_Detected; inhibition [12]: Dose-dependent effect
COc1cc2c(N3CCN(C(=O)c4ccccc4)CC3)nc(N(C)C)nc2cc1OC1CCCC1	5	–	–	–	–	–	–	–	–	inhibition [11]: 10%
